The results in this text go back to PubChem BioAssay (NCI).

Assay in all cases: growth of human tumour cells (NCI), 48 h
Experiment [1] relates to MDA-N.
Experiment [2] relates to CAKI-1 renal.
The test system of experiment [3] is COLO 205 colon.
The test system of experiment [4] is SK-MEL-28 melanoma.
The test system of experiment [5] is U251 CNS.
The test system of experiment [6] is RXF 393 renal.
The test system of experiment [7] is OVCAR-3 ovarian.
Experiment [8] has as its system SK-MEL-5 melanoma.
In experiment [9] the test system is HCT-116 colon.
Experiment [10] concerns 786-0 renal.
Experiment [11] relates to MOLT-4 leukemia.
In experiment [12] the test system is TK-10 renal.
Experiment [13] relates to UACC-62 melanoma.
Experiment [14] deals with KM12 colon.
In experiment [15] the test system is OVCAR-5 ovarian.
The test system of experiment [16] is SW-620 colon.
The test system of experiment [17] is UACC-257 melanoma.
In experiment [18] the test system is A498 renal.
The test system of experiment [19] is SF-539 CNS.
For experiment [20], the system named is SR leukemia.

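Five compound concentrations were applied to cells in 96-well plates for 48 hours; endpoints were derived by simple linear interpolation of the resulting dose-response curve. TGI marks complete inhibition of growth.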 Where only a bound is given, the exact number is not on record here.

As to `CCc1nc2ccc(N=NN(C)C)cc2[nH]1`, the TGI in experiment [1], in experiment [2], in [3], in experiment [4], in [5] and in [6] was over 100 µM throughout. The TGI in experiment [7], in experiment [8], in [9], in [10], in experiment [11] and in experiment [12] was over 100 µM throughout. The TGI in experiment [13], in experiment [14], in [15], in experiment [16] and in experiment [17] was over 100 µM throughout.

As for `CC(C)C[C@H]1[C@@H](OCc2ccccc2)COS(=O)N1[C@H](C)c1ccccc1` (stereo partly drawn), the TGI in experiment [18] was 87.2 µM; in experiment [1], over 100 µM; in experiment [2], 95.6 µM; in [3], 30.4 µM; in [4], over 100 µM; in experiment [5], 36.5 µM. Besides, the TGI in [6] was found to be 32.1 µM; in experiment [7] it was 26 µM; in experiment [8], 23.3 µM; in experiment [9], 19 µM; in [10], 36.1 µM; in experiment [11] it was 51.3 µM. Moreover, the TGI was over 100 µM in experiment [12]; over 100 µM in experiment [13]; 40.9 µM in experiment [14]; over 100 µM in [15]; over 100 µM in experiment [16]; over 100 µM in experiment [17].

Turning to `O=C(NCCCN(CCCCN(CCCNC(=O)C(F)(F)F)CCCc1ccccc1)CCCc1ccccc1)C(F)(F)F`, the TGI in experiment [1] came to 3.04 µM; in experiment [2], 3.69 µM; in experiment [3], 3.11 µM; in experiment [4], 3.16 µM; in [5], 3.56 µM; in experiment [19] it was 3.16 µM. For the same molecule, the TGI is 3.31 µM in [6]; 3.43 µM in experiment [8]; 5.9 µM in experiment [9]; 2.86 µM in experiment [10]; 4.48 µM in [11]; 3.79 µM in experiment [12]. Besides, the TGI amounted to 3.36 µM in [13]; 3.65 µM in experiment [14]; 25.9 µM in [15]; 3.93 µM in [16]; 3.32 µM in [17].

Consider `CC(C)(C)c1cc(C(=O)/C=C/C=C/c2ccccc2)cc(C(C)(C)C)c1O`, for which the TGI is over 80.7 µM in experiment [18]; over 100 µM in experiment [2]; 34.9 µM in [3]; over 100 µM in [4]; 33.5 µM in experiment [5]; 13.4 µM in experiment [20]. Besides, the TGI in experiment [19] is 33.6 µM; in [6] it was 15.1 µM; in [7] it was over 94.1 µM; in experiment [8] it was 37.2 µM; in experiment [9], 44.9 µM; in [10] it was 36.1 µM. Besides, the TGI is over 63.1 µM in experiment [11]; 59.2 µM in [12]; over 71.4 µM in experiment [13]; over 92.7 µM in experiment [14]; over 87 µM in [15]; 41.4 µM in experiment [16]. The molecule also had a TGI in experiment [17] of 25.4 µM.

In the case of `COC(=O)C1C=CN(N(C)C)C2=C1C(=O)c1c(O)cccc1C2=O` (stereo not drawn), the TGI is 7.47 µM in experiment [18]; 5.7 µM in experiment [2]; 3.66 µM in experiment [3]; 3.87 µM in [4]; 11.8 µM in experiment [5]; 14.1 µM in [6]. In addition, the TGI in experiment [7] was 5.82 µM; in experiment [8], 1.77 µM; in experiment [9] it was 5.79 µM; in experiment [10], 11.4 µM; in [12], 15 µM; in [13], 2.37 µM. The TGI in experiment [14] is 6.95 µM; in experiment [15], 4.62 µM; in [16] it was 5.14 µM; in experiment [17], 2.8 µM.

Regarding `CC1(C)OC2C(O)CN3CCS[C@H]3C2O1` (stereo partly drawn), the TGI in [18], in [2], in experiment [3], in [4], in experiment [5] and in experiment [20] was over 100 µM each time. Further, the TGI in experiment [6], in [7], in [8], in [9], in experiment [10] and in experiment [11] was over 100 µM throughout. Besides, the TGI in experiment [12], in [13], in experiment [14], in experiment [15], in experiment [16] and in experiment [17] was over 100 µM throughout.

On to `Nc1nc2c(ncn2Cc2ccc(CO)cc2)c(=O)[nH]1`, for which the TGI in experiment [18], in [2], in [3], in [4], in experiment [5] and in [20] was over 100 µM throughout. Moreover, the TGI in experiment [19], in [6], in [7], in [8], in experiment [9] and in experiment [10] was over 100 µM each time. Also, the TGI in [11], in [12], in experiment [13], in [14], in experiment [15] and in [16] was over 100 µM in each case. In [17], this molecule registered a TGI of over 100 µM.

Regarding `CC(C)=C1C(=O)C[C@]2(C)C[C@H]3/C(=C(/C)CCC12)CC[C@@]3(C)O` (stereo partly drawn), the TGI in experiment [18], in experiment [2], in [3], in [4], in experiment [5] and in experiment [20] was over 50 µM throughout. For the same molecule, the TGI in experiment [19], in experiment [6], in experiment [7], in experiment [8], in experiment [9] and in experiment [10] was over 50 µM in each case. Moreover, the TGI in [11], in experiment [12], in experiment [13], in experiment [14], in [15] and in experiment [16] was over 50 µM each time. This molecule also gave a TGI in experiment [17] of over 50 µM.

As to `COc1ccc(N2C(=O)CS(=O)(=O)C2c2cccc(Oc3ccccc3)c2)cc1` (stereo not drawn), the TGI in [2] is 19.3 µM; in [3], 11.4 µM; in experiment [4], over 100 µM; in experiment [5], 22.1 µM; in experiment [20] it was 8.48 µM; in experiment [19] it was 15.1 µM. The TGI in experiment [6] was 19 µM; in experiment [7], over 100 µM; in [8], 16.7 µM; in experiment [9], 5.88 µM; in experiment [10] it was 21.1 µM; in experiment [11] it was 21.9 µM. The TGI in experiment [12] is 8.46 µM; in experiment [13] it was 6.25 µM; in experiment [14], over 100 µM; in experiment [15] it was over 100 µM; in experiment [16] it was over 100 µM; in [17], 10.9 µM.

Consider `O=C(NS(=O)(=O)OCC(Cl)(Cl)Cl)SCCC(F)(F)C(F)(F)C(F)(F)C(F)(F)C(F)(F)C(F)(F)F`, for which the TGI is 61.9 µM in [18]; 92.7 µM in [2]; 33.5 µM in experiment [3]; 55.7 µM in experiment [4]; 51.8 µM in experiment [5]; over 100 µM in experiment [20]. Also, the TGI is 34.5 µM in experiment [19]; 44.6 µM in experiment [6]; 48.3 µM in experiment [7]; 40.8 µM in experiment [9]; over 100 µM in [10]; 80 µM in experiment [11]. Also, the TGI was 62.6 µM in experiment [12]; 40.6 µM in [13]; 43.5 µM in experiment [14]; 34.6 µM in experiment [15]; 38.3 µM in experiment [16]; over 100 µM in experiment [17].

On to `Cc1ccsc1/C=N/Nc1ccc2ccccc2n1`, for which the TGI in experiment [18], in experiment [1], in experiment [2], in [3], in experiment [4] and in [5] was over 100 µM each time. Moreover, the TGI in experiment [6] was 89.8 µM; in experiment [7], over 100 µM; in experiment [8] it was 13.2 µM; in [9] it was over 100 µM; in [10] it was over 100 µM; in experiment [11], over 100 µM. Besides, the TGI was 66.2 µM in experiment [12]; over 100 µM in [13]; over 100 µM in experiment [14]; over 100 µM in [15]; over 100 µM in experiment [16]; 53.2 µM in [17].

In the case of `C#CCN(CC#C)C(=O)C(=O)c1c[nH]c2ccc(OC)cc12`, the TGI was 29.5 µM in experiment [18]; 60 µM in experiment [3]; 31 µM in [4]; 27.6 µM in experiment [5]; 23.2 µM in [20]; 29.2 µM in [19]. The TGI in experiment [6] stood at 29.8 µM; in experiment [8] it was 31.1 µM; in experiment [9], 36.1 µM; in [10], 31 µM; in experiment [12], 34.3 µM; in [13], 42.7 µM. For the same molecule, the TGI in [14] turned out to be 30.6 µM; in [15], 48 µM; in experiment [16] it was 41.2 µM; in experiment [17], 34 µM.
